± gives the expanded uncertainty stated by the source.
Key:
[1] = mn = molality of the nth substance listed, in mol/kg; details: 101 kPa, Liquid, Pycnometric method, m1 = 1.5
[2] = 101.33 kPa, Liquid, Pycnometric method

| mass density ([2]; 308.15 K) [kg/m3] | mass density ([2]; 318.15 K) [kg/m3] | mass density ([2]; 323.15 K) [kg/m3] | Structure (SMILES) | mass density ([1]; 298.15 K) [kg/m3] | mass density ([1]; 303.15 K) [kg/m3] | mass density ([1]; 308.15 K) [kg/m3] | mass density ([1]; 313.15 K) [kg/m3] | mass density ([1]; 318.15 K) [kg/m3] | mass density ([1]; 323.15 K) [kg/m3] |
| --- | --- | --- | --- | --- | --- | --- | --- | --- | --- |
| – | – | – | O=[N+]([O-])[O-].[K+] [potassium nitrate] + O | 1086.9 ± 0.6 | 1085 ± 0.6 | 1083 ± 0.6 | 1080.6 ± 0.6 | 1077.9 ± 0.6 | 1075 ± 0.6 |
| – | – | – | [Cl-].[Na+] [sodium chloride] + O | 1058.8 ± 0.6 | 1056.1 ± 0.6 | 1053.8 ± 0.6 | 1051.4 ± 0.6 | 1048.8 ± 0.6 | 1046.2 ± 0.6 |
| – | – | – | O=[N+]([O-])[O-].[Na+] [sodium nitrate] + O | 1079.1 ± 0.6 | 1076.5 ± 0.6 | 1073.5 ± 0.6 | 1070.3 ± 0.6 | 1067 ± 0.6 | 1063.7 ± 0.6 |
| 994.2 ± 0.5 | 990.3 ± 0.5 | 987.9 ± 0.5 | O [water] | – | – | – | – | – | – |
